Measured values published in patent publication US20230212222A1 (ANYGEN CO., LTD., priority 2020, published 2023).
Like-named read-outs stand apart in the source and are kept apart here. Square brackets hold non-standard residues; d marks the D form. Peptide text beside a SMILES is read from it. * marks the point of attachment. Tyr(3,5-(NO2)2) = N[C@@H](Cc1cc([N+](=O)[O-])c(O)c([N+](=O)[O-])c1)C(=O)O; His(Trt) = N[C@@H](Cc1cn(C(c2ccccc2)(c2ccccc2)c2ccccc2)cn1)C(=O)O; dHis(Trt) = N[C@H](Cc1cn(C(c2ccccc2)(c2ccccc2)c2ccccc2)cn1)C(=O)O; His(τ-CHPh2) = N[C@@H](Cc1cn(C(c2ccccc2)c2ccccc2)cn1)C(=O)O; Tyr(3-NH2) = Nc1cc(C[C@H](N)C(=O)O)ccc1O; dPhe(4-Cl) = N[C@H](Cc1ccc(Cl)cc1)C(=O)O; dPhe(4-Me) = Cc1ccc(C[C@@H](N)C(=O)O)cc1; d2Nal = N[C@H](Cc1ccc2ccccc2c1)C(=O)O; Dmt = Cc1cc(O)cc(C)c1C[C@H](N)C(=O)O; d3Pal = N[C@H](Cc1cccnc1)C(=O)O; Octanoyl = CCCCCCCC(=O)*

How the values were obtained:
[1] = target: T1, GPR39 (Homo sapiens, UniProt O43194); test: luciferase assay system (SRE luciferase reporter gene) for GPR39 in CV-1 cells; conditions: for ECmax (-fold induction over basal): CV-1 cells
T1 sequence (O43194 1-453): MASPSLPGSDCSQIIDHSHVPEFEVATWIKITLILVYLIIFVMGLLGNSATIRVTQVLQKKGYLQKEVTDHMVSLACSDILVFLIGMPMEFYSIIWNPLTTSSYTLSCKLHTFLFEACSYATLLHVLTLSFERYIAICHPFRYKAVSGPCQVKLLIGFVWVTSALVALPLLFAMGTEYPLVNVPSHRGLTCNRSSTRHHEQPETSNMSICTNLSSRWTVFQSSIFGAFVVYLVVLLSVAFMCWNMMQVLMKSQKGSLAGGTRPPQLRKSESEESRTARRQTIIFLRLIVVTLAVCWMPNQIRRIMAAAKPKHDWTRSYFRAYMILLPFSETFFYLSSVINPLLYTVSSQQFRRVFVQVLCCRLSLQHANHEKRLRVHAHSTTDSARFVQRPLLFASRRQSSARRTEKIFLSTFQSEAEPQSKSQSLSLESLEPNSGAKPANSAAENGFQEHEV
Description: (§1) Specifically, the fibroblast cell line CV-1 (1×10^5 cells/ml, Korea Cell Line Bank) was cultured in a 96 well cell culture plate for 24 hours, and then treated with GPR39 inserted into adenovirus and SRE (serum response element) luciferase at 50 MOI (multiplicity of infection) and 25 MOI virus for 3 hours, respectively, and then cultured for 24 hours.

[2] = target: T1, GPR39
Description: as §1

[3] = EC50, CV-1 cells, GPR39 and SRE luciferase adenovirus, treated 6 hours, luminometer
[4] = GPR39 and SRE luciferase adenovirus, treated 6 hours, luminometer

Compound | EC50 [1, 3] [nM] | ECmax (-fold induction over basal) [2] | ECmax (-fold induction over basal) [1, 4] | other results
CCCCCCCC(=O)NCCCC[C@H](NC(=O)[C@@H](N)Cc1cn(C(c2ccccc2)c2ccccc2)cn1)C(=O)N[C@H](Cc1ccc(C)cc1)C(=O)N[C@@H](Cc1ccc(O)c(N)c1)C(=O)O [HKFY-70, (S)-2-((R)-2-((S)-2-((S)-2-amino-3-(1-benzhydryl-1H-imidazol-4-yl)propanamido)-6-octanamidohexanamido)-3-(p-tolyl)propanamido)-3-(3-amino-4-hydroxyphenyl)propanoic acid] (H-[His(τ-CHPh2)]K(Octanoyl)[dPhe(4-Me)][Tyr(3-NH2)]-OH) | 20 ± 1 | 10.1 ± 1.6 -fold induction over basal | – | –
CCCCCCCC(=O)NCCCC[C@H](NC(=O)[C@@H](N)Cc1cn(C(c2ccccc2)(c2ccccc2)c2ccccc2)cn1)C(=O)N[C@H](Cc1ccc(C)cc1)C(=O)N[C@@H](Cc1ccc(O)cc1)C(=O)O [HKFY-30, ((R)-2-((S)-2-((S)-2-amino-3-(1-trityl-1H-imidazol-4-yl)propanamido)-6-octanamidohexanamido)-3-(p-tolyl)propanoyl)-L-tyrosine] (H-[His(Trt)]K(Octanoyl)[dPhe(4-Me)]Y-OH) | 8 ± 1 | 23.88 ± 3.04 -fold induction over basal | – | ECmax value (in words) ([1]; comment on Table 3): high ECmax value; activity level for GPR39 (in words) ([1]; comment on Table 3, listed as HIKFY-30): most excellent activity; activity level for GPR39 (in words) ([1]; comment on Table 3, listed as HJKFY-30): higher activity level than other HJKFY derivatives
CCCCCCCC(=O)NCCCC[C@H](NC(=O)[C@@H](N)Cc1cn(C(c2ccccc2)(c2ccccc2)c2ccccc2)cn1)C(=O)N[C@H](Cc1cccnc1)C(=O)N[C@@H](Cc1ccc(O)cc1)C(=O)O [HKFY-73, ((R)-2-((S)-2-((S)-2-amino-3-(1-trityl-1H-imidazol-4-yl)propanamido)-6-octanamidohexanamido)-3-(pyridin-3-yl)propanoyl)-L-tyrosine] (H-[His(Trt)]K(Octanoyl)[d3Pal]Y-OH) | 23 ± 1 | 11.6 ± 2.3 -fold induction over basal | – | –
CCCCCCCC(=O)NCCCC[C@H](NC(=O)[C@H](N)Cc1cn(C(c2ccccc2)(c2ccccc2)c2ccccc2)cn1)C(=O)N[C@H](Cc1ccc(Cl)cc1)C(=O)N[C@H](Cc1ccc(O)cc1)C(=O)O [HKFY-14, ((R)-2-((S)-2-((R)-2-amino-3-(1-trityl-1H-imidazol-4-yl)propanamido)-6-octanamidohexanamido)-3-(4-chlorophenyl)propanoyl)-D-tyrosine] (H-[dHis(Trt)]K(Octanoyl)[dPhe(4-Cl)][dY]-OH) | 20 ± 3 | 20.9 ± 1.4 -fold induction over basal | – | –
CCCCCCCC(=O)NCCCC[C@H](NC(=O)[C@@H](N)Cc1cn(C(c2ccccc2)c2ccccc2)cn1)C(=O)N[C@H](Cc1ccc(C)cc1)C(=O)N[C@@H](Cc1c(C)cc(O)cc1C)C(=O)O [HKFY-36, (S)-2-((R)-2-((S)-2-((S)-2-amino-3-(1-benzhydryl-1H-imidazol-4-yl)propanamido)-6-octanamidohexanamido)-3-(p-tolyl)propanamido)-3-(4-hydroxy-2,6-dimethylphenyl)propanoic acid] (H-[His(τ-CHPh2)]K(Octanoyl)[dPhe(4-Me)][Dmt]-OH) | – | – | 9.9 ± 0.28 -fold induction over basal | EC50 [1]: 150 ± 50 nM
CCCCCCCC(=O)NCCCC[C@H](NC(=O)[C@@H](N)Cc1cn(C(c2ccccc2)(c2ccccc2)c2ccccc2)cn1)C(=O)N[C@H](Cc1ccc2ccccc2c1)C(=O)N[C@@H](Cc1ccc(O)cc1)C(=O)O [HKFY-74, ((R)-2-((S)-2-((S)-2-amino-3-(1-trityl-1H-imidazol-4-yl)propanamido)-6-octanamidohexanamido)-3-(naphthalen-2-yl)propanoyl)-L-tyrosine] (H-[His(Trt)]K(Octanoyl)[d2Nal]Y-OH) | 8 ± 1 | 18.8 ± 3.2 -fold induction over basal | – | –
CCCCCCCC(=O)NCCCC[C@H](NC(=O)[C@@H](N)Cc1c[n+](CCCc2ccccc2)cn1CCCc1ccccc1)C(=O)N[C@@H](Cc1ccccc1)C(=O)N[C@@H](Cc1ccc(O)cc1)C(=O)O | – | – | 15 ± 2.12 -fold induction over basal | –
CCCCCCCC(=O)NCCCC[C@H](NC(=O)[C@@H](N)Cc1cn(-c2ccccc2)cn1)C(=O)N[C@H](Cc1ccc(C)cc1)C(=O)N[C@@H](Cc1ccc(O)cc1)C(=O)O [HKFY-58, ((R)-2-((S)-2-((S)-2-amino-3-(1-phenyl-1H-imidazol-4-yl)propanamido)-6-octanamidohexanamido)-3-(p-tolyl)propanoyl)-L-tyrosine] | 20 ± 2 | 9.12 ± 2.1 -fold induction over basal | – | –
CCCCCCCC(=O)NCCCC[C@H](NC(=O)[C@@H](N)Cc1cn(C(c2ccccc2)c2ccccc2)cn1)C(=O)N[C@H](Cc1ccc(C)cc1)C(=O)N[C@@H](Cc1cc([N+](=O)[O-])c(O)c([N+](=O)[O-])c1)C(=O)O [HKFY-69, (S)-2-((R)-2-((S)-2-((S)-2-amino-3-(1-benzhydryl-1H-imidazol-4-yl)propanamido)-6-octanamidohexanamido)-3-(p-tolyl)propanamido)-3-(4-hydroxy-3,5-dinitrophenyl)propanoic acid] (H-[His(τ-CHPh2)]K(Octanoyl)[dPhe(4-Me)][Tyr(3,5-(NO2)2)]-OH) | – | – | 12.2 ± 2.5 -fold induction over basal | –
CCCCCCCC(=O)NCCCC[C@H](NC(=O)[C@@H](N)Cc1cn(C(c2ccccc2)(c2ccccc2)c2ccccc2)cn1)C(=O)N[C@@H](Cc1ccccc1)C(=O)N[C@@H](Cc1ccc(O)cc1)C(=O)N[C@@H](CO)C(=O)N[C@@H](CCC(N)=O)C(=O)N[C@@H](CC(=O)O)C(=O)NCC(=O)N[C@@H](C)C(=O)N[C@@H](CCCNC(=N)N)C(=O)N[C@@H](Cc1ccccc1)C(N)=O [HKFY-41, (3S,6S,9S,12S,15S,18S)-3-((2-(((S)-1-(((S)-1-(((S)-1-amino-1-oxo-3-phenylpropan-2-yl)amino)-5-guanidino-1-oxopentan-2-yl)amino)-1-oxopropan-2-yl)amino)-2-oxoethyl)carbamoyl)-18-((S)-2-amino-3-(1-trityl-1H-imidazol-4-yl)propanamido)-6-(3-amino-3-oxopropyl)-15-benzyl-12-(4-hydroxybenzyl)-9-(hydroxymethyl)-5,8,11,14,17,24-hexaoxo-4,7,10,13,16,23-hexaazahentriacontanoic acid] (H-[His(Trt)]K(Octanoyl)FYSQDGARF-NH2) | – | – | 12.2 ± 0.02 -fold induction over basal | –
CCCCCCCC(=O)NCCCC[C@H](NC(=O)[C@@H](N)Cc1cncn1CCCC1CCCCC1)C(=O)N[C@@H](Cc1ccccc1)C(=O)N[C@@H](Cc1ccc(O)cc1)C(=O)O | – | – | 16 ± 2.2 -fold induction over basal | –
CCCCCCCC(=O)NCCCC[C@H](NC(=O)[C@@H](N)Cc1c[n+](CCCC2CCCCC2)cn1CCCC1CCCCC1)C(=O)N[C@@H](Cc1ccccc1)C(=O)N[C@@H](Cc1ccc(O)cc1)C(=O)O | – | – | 17.3 ± 1.22 -fold induction over basal | EC50 [1]: 33700 ± 1300 nM
CCCCCCCC(=O)NCCCC[C@H](N)C(=O)N[C@@H](Cc1cn(C(c2ccccc2)(c2ccccc2)c2ccccc2)cn1)C(=O)N[C@@H](Cc1ccccc1)C(=O)N[C@@H](Cc1ccc(O)cc1)C(=O)O [HKFY-55, Na-(N6-octanoyl-L-lysyl)-Nt-trityl-L-histidyl-L-phenylalanyl-L-tyrosine] (H-K(Octanoyl)[His(Trt)]FY-OH) | – | 16.8 ± 2.5 -fold induction over basal | – | –
CCCCCCCC(=O)NCCCC[C@H](NC(=O)[C@@H](N)Cc1cn([C@H](c2ccccc2)c2ccc(Cl)cc2)cn1)C(=O)N[C@@H](Cc1ccccc1)C(=O)N[C@@H](Cc1ccc(O)cc1)C(=O)O [HKFY-21, N2-(Nt-((R)-(4-chlorophenyl)(phenyl)methyl)-L-histidyl)-N6-octanoyl-L-lysyl-L-phenylalanyl-L-tyrosine] | – | 18.3 ± 2.5 -fold induction over basal | – | –
CCCCCCCC(=O)NCCCC[C@H](NC(=O)[C@@H](N)Cc1cn(C(c2ccccc2)(c2ccccc2)c2ccccc2)cn1)C(=O)N[C@@H](Cc1ccc(O)cc1)C(=O)N[C@@H](Cc1ccccc1)C(=O)O [HKFY-47, N6-octanoyl-N2-(Nt-trityl-L-histidyl)-L-lysyl-L-tyrosyl-L-phenylalanine] (H-[His(Trt)]K(Octanoyl)YF-OH) | – | 13 ± 1.7 -fold induction over basal | – | –
CCCCCCCC(=O)NCCCC[C@H](NC(=O)[C@@H](N)Cc1cn(CCc2ccccc2)cn1)C(=O)N[C@@H](Cc1ccccc1)C(=O)N[C@@H](Cc1ccc(O)cc1)C(=O)O [HKFY-19, N6-octanoyl-N2-(Nt-phenethyl-L-histidyl)-L-lysyl-L-phenylalanyl-L-tyrosine] | – | 18 ± 1.7 -fold induction over basal | – | –
